Reference: patent publication US10611797B2, “Peptide having anticancer activity, and pharmaceutical composition and dietary supplement composition for preventing and treating cancer, both of which contain same as active ingredient” (IUCF-HYU (INDUSTRY-UNIVERSITY COOPERATION FOUNDATION …, priority 2015, dated 2020)

Key:
[1] = test system: CD34+ hematopoietic progenitor cells (HPCs); test: Microscopy of hematopoietic progenitor cells and cells differentiating into erythrocytes; type: cell-based, human; conditions: up to 10 μM, 72 h; days 3, 7, 14 of differentiation
Method: Cells were observed under an inverted phase contrast microscope and their morphological changes were imaged. The CD34+ hematopoietic progenitor cells were cultured in IMDM media containing 1% BSA. For differentiation induction into erythrocytes, cells were cultured with EPO, SCF, IL-3, and hydrocortisone for the first 7 days, and thereafter, cultured in media supplemented with EPO, SCF, and IL-3 only.

CP2c = test: Luciferase reporter assay of CP2c transcriptional activity in 293T cells; type: cell-based, human; conditions: 2 μM, 48 h, wild-type CP2c binding sites, compared with FQI1
Method: 293T cells were inoculated into a 12-well plate at a density of 1×10^5 cells/well. 12 h after inoculation, cells were transfected with combinations of a reporter vector (the wild-type reporter links the enhancer sequence of the GATA-1 gene including twice repeated CP2c-binding sites to the upstream of the luciferase gene and Mut 1/3, Mut 2/4, and Mut 1-4 reporters cause mutations of the CP2c binding sites present in the enhancer sequence) and various Flag-CP2c, HA-CP2b, and HA-PIAS1 expression vectors by using the effectene method. After 1-h culture, cells were treated with FQI1, Peptide 5C, and Peptide 5-2C at concentrations of 2 μM, followed by 48-h culture. Cells were harvested and lysed in 250 μl of passive cell lysis buffer (Promega) to obtain an extract. 20 μl of the cell extract and a dual-luciferase assay kit (Promega) were used to measure the activity of the labeled luciferase gene in GLOMAX (Promega) (the expression of each expression vector was confirmed by Western blotting).

MEL cell line = test: Cell cycle analysis by FACS, MEL; type: cell-based, mouse; conditions: 0, 1, 2, 3, 10 μM, 48 h
Method: (§1) 5×10^5 cells of each of MEL, K562, MCF-10A, and MDA-MB-231 cell lines were inoculated into 100 mm dishes. 24 h after inoculation, cells were treated with Peptide 5-2C such that the final concentrations were 0, 1, 2, 3, and 10 μM. 48 h after Peptide 5-2C treatment, cells were collected by trypsin treatment. Thereafter, 1×10^6 cells were suspended in 0.5 ml PBS and dissociated into single cells by pipetting. The cell suspension was transferred to a centrifugal tube containing 4.5 ml of 70% ethanol and allowed to stand at 4° C. for 2 h to immobilize the cells. A cell sediment was obtained by centrifugation, washed with 5 ml of PBS solution, sufficiently suspended in 1 ml of PI staining solution, and stained in the dark for 30 min. Cell fluorescence was measured in BD FACSAria and cell cycle was analyzed using the software provided from the same company.

[2] = test system: U343 glioblastoma cell line tumors; test: Mouse model transplanted with U343 glioblastoma cell line; type: in vivo; conditions: 3 mg/kg directly into tumor sites every three days, day 70, vs physiological saline
Method: U343 glioblastoma cell line (2.5×10^6 cells/50 μl) was injected subcutaneously into the backs of 5-week-old male BALB/C nude mice (n=6/group), Peptide 5-2C (3 mg/kg) was directly injected into the tumor sites every three days from the time when the tumor sizes increased to about 8 mm^2, the body weights of the mice and the volumes of the tumors were measured, the mice were sacrificed on day 70 after the peptide injection, and the tumors, blood, and major organs were excised. The tumor sizes were measured using a vernier calipers and the tumor volumes were calculated by (major axisxminor axis^2)/2. Peripheral blood was collected from the ophthalmic artery of each mouse using a microcapillary coated with EDTA and stored in a sample tube coated with 5.4 mg EDTA. The tumors and the major organs were excised by dissection. The collected blood was subjected to a fundamental complete blood cell count (CBC) using a Coulter LH 750 Hematology analyzer. After the tumors were weighed, the tumors and the major organs were stained with 4% formaldehyde. Tissue slices were prepared through paraffin section and stained with hematoxylin/eosin. Acquired data were statistically analyzed using the Excel program.

[3] = test system: glioblastoma cell lines (U251, U87MG, U343); test: MTT cell viability, glioblastoma cell lines; type: cell-based, human; conditions: 0-10 μM, 24-96 h
Method: (§3) Liver cancer cell lines (HepG2, Hep3B) were inoculated into 96-well plates at a density of 3000 cells/well, and then 50 μl of culture solution was added thereto. Cells were cultured at 37° C. and 5% CO2 for 1 h. […] Cells were cultured at 37° C. and 5% CO2 for 24, 48, 72, and 96 h. After completion of the culture, the remaining culture solution was removed from the well plates, the cultures were diluted with MTT solution (3-(4,5-dimethylthiazol-2-yl)-2,5-diphenyltetrazole bromide) to a final density of 500 μg/ml, and cells were cultured at 37° C. and 5% CO2 for 3 h. The remaining MTT solution was removed and 150 μl of dimethyl sulfoxide (DMSO) was added. The reaction was carried out at room temperature for 20 min. After completion of the reaction, absorbance was measured using a microplate reader.

[4] = test system: breast cancer cell lines (MCF7, MDA-MB-231); test: MTT cell viability, breast cancer cell lines; type: cell-based, human; conditions: 0-10 μM, 24-96 h
Method: as §3

[5] = test system: human embryonic stem cells (hESCs, H9)
From the text: MEF cells labeled with rhodamine were often used to distinguish them from hESC-derived cells.

[6] = test system: normal cell lines (MCF10A, BEAS2B, hMSCs, mouse primary T cells)
Method: (§4) Liver cancer cell lines (HepG2, Hep3B), a human embryonic kidney cell line (293T), breast cancer cell lines (MCF-7, MDA-MB-231), blood tumor cell lines (K562, HEL, HL60), glioblastoma cell lines (U251, U373MG, U87MG), a mammary epithelial cell line (MCF10A), a lung epithelial cell line (BEAS2B), human mesenchymal stem cells (hMSCs), and mouse primary T cells (resting and activated T cells) were inoculated into 96-well plates at a density of 3,000 cells/well, supplemented with 50 μl of culture solution, and cultured at 37° C. and 5% CO2 for 1 h. […] After completion of the culture, cells were observed under an inverted phase contrast microscope and their morphological changes were imaged.

[7] = test system: human mesenchymal stem cells (hMSC)
[8] = test system: glioblastoma cell lines (U343, U373MG, U251, U87MG); test: IC50 of Peptide 5-2C over time in glioblastoma cell lines; type: cell-based, human; conditions: one-time treatment
Method: After one-time treatment of various glioblastoma cell lines (U343, U373MG, U251, and U87MG) with Peptide 5-2C, IC50 values were measured with time using the Graph Prism Pad 6 program.

[9] = test system: human embryonic kidney cancer cell line (293T); test: MTT cell viability, 293T; type: cell-based; conditions: 0-10 μM, 24-96 h
Method: as §3

[10] = test system: human embryonic stem cell line (H9) and co-cultured cells; test: Microscopy of human embryonic stem cell line (H9) in co-culture; type: cell-based
Method: Two colonies of a human embryonic stem cell line (H9) per well were inoculated into 96-well plates on which normal embryonic epithelial cells or embryonic epithelial cells fluorescently stained with rhodamine were plated, followed by culture for 24 h.

MDA-MB-231 cell line = test: Electron microscopy of cell morphology, MDA-MB-231; type: cell-based, human; conditions: 2 μM, 24 and 48 h
From the text: The collected cells were washed once with physiological saline.

[11] = test system: liver cancer cell lines (HepG2, Hep3B); test: MTT cell viability, liver cancer cell lines; type: cell-based, human; conditions: 0-10 μM, 24-96 h
Method: as §3

[12] = test system: A431 human epidermoid carcinoma cell line tumors; test: Mouse model transplanted with A431 epidermoid carcinoma cell line; type: in vivo; conditions: 1.7 and 3.5 mg/kg, tail vein, every other day, five times, day 13
Method: (§2) After the tumors were weighed, the tumors and the major organs were stained with 4% formaldehyde. Tissue slices were prepared through paraffin section and stained with hematoxylin/eosin. Acquired data were statistically analyzed using the Excel program.

MCF-10A cell line = test: Cell cycle analysis by FACS, MCF-10A; type: cell-based, human; conditions: 0, 1, 2, 3, 10 μM, 48 h
Method: as §1

[13] = test system: MDA-MB-231 cell line (LM1 cells) tumors and lung metastasis; test: Mouse model transplanted with MDA-MB-231 (LM1) breast cancer cell line; type: in vivo
Method: as §2, with “The collected blood was subjected to a fundamental CBC using a Coulter LH 750 Hematology analyzer. After” for “After”

[14] = test system: human blood cancer cell lines (K562, HEL, HL60); test: MTT cell viability, human blood cancer cell lines; type: cell-based; conditions: 0-10 μM, 24-96 h
Method: as §3

[15] = test system: K562 cell line and MDA-MB-231 cell line; test: Cell cycle analysis by FACS, K562 and MDA-MB-231; type: cell-based, human; conditions: 0, 1, 2, 3, 10 μM, 48 h
Method: as §1

MCF7 cell line = test: Western blotting of cell cycle-related marker proteins in MCF7; type: cell-based, human; conditions: 2 μM for 0-72 h; 1, 2, 3 μM for 48 h
Method: 1×10^5 cells of MCF7 breast cancer cell line were inoculated into a 6-well plate. 24 h after inoculation, cells were treated with Peptide 5-2C at a final concentration of 2 μM. After 0, 24, 48, and 72 h, cell extracts were collected in the same manner as in Example 6. Western blotting was performed using various antibodies against cell cycle-related marker genes. On the other hand, cell extracts were obtained from the groups treated with Peptide 5-2C at final concentrations of 1, 2, and 3 μM for 48 h and Western blotting was performed in the same manner.

[16] = test system: MCF-7, 293T, MDA-MB-231 mammospheres; test: Mammosphere culture of cancer cell lines, microscopy; type: cell-based, human; conditions: 2 μM, 4 days
From the text: Cancer cell lines (MCF-7, 293T, MDA-MB-231) were inoculated at a density of 1×10^4 cells/ml into polyHEMA-coated 100 phi Petri dishes. […] Cells were observed under an inverted phase contrast microscope once a day and their morphological changes were imaged. […] Mammosphere culture of cancer cell lines is known to increase the number of cancer stem cells.

[17] = test system: cancer cell lines (HepG2, Hep3B, 293T, MCF-7, MDA-MB-231, K562, HEL, HL60, U251, U373MG, U87MG); test: Microscopic observation of growth inhibition and apoptosis, cancer cell lines; type: cell-based, human; conditions: 2 μM, 48 h
Method: as §4

[18] = 1.7 and 3.5 mg/kg, tail vein, every three days, five times, day 30, vs control

Method for MCF10A cell line: 1.5×10^6 cells of MDA-MB-231 cell line and 5×10^5 cells of MCF10A cell line were inoculated into 100 mm dishes. […] After culture for 24 and 48 h, cells were collected. The culture solution was centrifuged and surface adherent cells were collected by trypsin treatment. The collected cells were washed once with physiological saline. The cell sediment was directly treated twice with 2.5% aqueous glutaraldehyde solution (each for 10 min). Samples for electron microscopy were prepared and imaged in accordance with general methods.

In the case of “NYPQRPCRGDKGPDC [Peptide 5-2C, Ac-NYPQRPCRGDKGPDC-Amide]”, the “growth inhibition and apoptosis of HPCs and cells differentiating into erythrocytes (microscopy)” value [1] is reported as “growth inhibition and apoptosis of the cells were not observed”, the “CP2c-mediated transcriptional activity (luciferase reporter)” value (CP2c) is reported as “effectively inhibit CP2c-mediated transcriptional activity compared to FQI1” and the “number of cells in subG1 phase in MEL” value (MEL cell line) is reported as “the number of cells in the subG1 phase was significantly increased only at high concentrations”. The “body weight, major CBC indices, histologic/anatomic characteristics of major organs” value [2] was “there were no differences in the weight of the mice, the major CBC indices of the mice, and the histologic/anatomic characteristics of the major organs”, the “reduction of tumor volume” value [2] was about 60% and the “reduction of tumor weight” value [2] was about 60%. The “relative viability (MTT), glioblastoma cell lines, compared with FQI1” value [3] was “more effectively inhibited the growth of the glioblastoma cell lines and induced apoptosis than FQI1”, the “relative viability (MTT), breast cancer cell lines, compared with FQI1” value [4] was “more effectively inhibited the growth of the breast cancer cell lines and induced apoptosis than FQI1” and the “cytotoxicity (MTT) in hESCs” value [5] was “no substantial cytotoxicity even at high concentrations”. For the same sequence, the “effect on normal cell lines (microscopy)” value [6] was “without substantially affecting the normal cell lines”, the “cytotoxicity (MTT) in hMSC” value [7] was “no substantial cytotoxicity even at high concentrations” and the “IC50 at 48 h compared with 96 h” value [8] was “the IC50 values after 48 h were similar to those after 96 h”. The “intracellular structural abnormalities in MCF10A (electron microscopy)” value (MCF10A cell line) was “no intracellular structural abnormalities were observed”, the “relative viability (MTT), 293T, compared with FQI1” value [9] was “inhibited the growth of the glioblastoma cell lines and induced apoptosis similarly to FQI1” and the “death of embryonic stem cells and co-cultured cells” value [10] was “none of the embryonic stem cells and the co-cultured cells died”. The “intracellular structural abnormalities in MDA-MB-231 (electron microscopy)” value (MDA-MB-231 cell line) was “significantly different intracellular structural abnormalities were observed in the Peptide 5-2C-treated group compared to in the FQI1-treated group”, the “relative viability (MTT), liver cancer cell lines, compared with FQI1” value [11] was “more effectively inhibited the growth of the liver cancer cell lines and induced apoptosis than FQI1” and the “histologic/anatomic characteristics of the major organs” value [12] was “no significant changes in the histologic/anatomic characteristics of the major organs”. For the same sequence, the “reduction of tumor volume” value [12] was at least 70%, the “reduction of tumor weight” value [12] was at least 60% and the “cell cycle changes in MCF-10A” value (MCF-10A cell line) was “no substantial changes in cell cycle were observed”. For the same sequence, the “reduction of number of tumor foci metastasized to the lung” value [13, 18] was about 50%, the “reduction of tumor weights” value [13, 18] was about 30% and the number of leukocytes ([13]; control tumor mice had twice the number of normal mice) was “close to the normal value”. The “relative viability (MTT), K562, HEL, HL60, compared with FQI1” value [14] was “slightly effectively inhibited the growth of the glioblastoma cell lines and induced apoptosis compared to FQI1”, the “cell cycle phase distribution in K562 and MDA-MB-231” value [15] was “the number of cells in the S phase was decreased, the number of cells in the G2/M phase was increased, and an increase in the number of cells in the subG1 phase was dependent on the concentration of Peptide 5-2C” and the “expression of cell cycle-related marker proteins” value (MCF7 cell line) was “the expressions of Cyclin E, p21, and p53 increased gradually and the expressions of CDK1 and Cyclin B1 decreased gradually”. The “formation of mammospheres and cell growth” value [16] was “the formation of mammospheres was effectively inhibited and cell growth was decreased” and the “growth inhibition and apoptosis induction of cancer cell lines (microscopy)” value [17] was “specifically inhibited the growth of the cancer cell lines and induced apoptosis”.
